These results are taken from patent US9526680B2, “Method for searching for malodor control agent, malodor control agent, and malodor control method” (Kao Corporation, priority 2010, dated 2016).

One assay has as its target T1, OR2W1 (Homo sapiens, UniProt Q9Y3N9).
T1 construct: expressed in transfected cells; host or cells: HEK293
T1 sequence (Q9Y3N9 1-320): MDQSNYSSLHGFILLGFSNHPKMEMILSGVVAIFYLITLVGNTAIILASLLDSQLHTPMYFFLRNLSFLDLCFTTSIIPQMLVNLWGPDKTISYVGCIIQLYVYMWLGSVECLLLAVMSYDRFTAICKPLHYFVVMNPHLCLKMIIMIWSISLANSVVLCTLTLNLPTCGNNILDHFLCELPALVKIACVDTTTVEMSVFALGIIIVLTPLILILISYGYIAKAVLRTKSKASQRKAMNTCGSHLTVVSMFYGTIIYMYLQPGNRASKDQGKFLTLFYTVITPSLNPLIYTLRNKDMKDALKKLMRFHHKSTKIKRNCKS
Kind of assay: Luciferase reporter gene assay, OR2W1 expressed in HEK293 cells. To be noted: for Inhibition of OR2W1 response to hexanoic acid (in words): 1 mM hexanoic acid, test substance 3, 10, 30, 100, 300 μM (FIG. 4). The class given is cell-based. The protocol:
(§1) Cloning of human olfactory receptors was performed based on the sequence information registered in GenBank, through PCR with human genomic DNA female (G1521: Promega) as a template. Each of the genes amplified through PCR was inserted into a pENTR vector (Invitrogen) according to an instruction manual. Then, the gene-inserted vector was digested with NotI and AscI, and the obtained fragments were inserted into NotI and AscI sites located downstream of the Flag-Rho tag sequence in the pME18S vector.
(§2) Each of the 350 types of human olfactory receptors was expressed in HEK293 cells. A reaction solution having a composition shown in Table 2 was prepared on a clean bench, and left to stand for 15 minutes. The solution was dispensed to each well of a 96-well plate (BD). Subsequently, […] cells (100 μL, 3×10^5 cells/cm^2) were seeded in each well and cultured for 24 hours in an incubator at 37° C. and under 5% CO2 conditions.
(§3) The olfactory receptor expressed in HEK293 cell was conjugated with cell-intrinsic Gas to activate adenylate cyclase, and thereby the level of intracellular cAMP was increased. For the measurement of the response to odor in this study, the luciferase reporter gene assay was used, in which an increase in the amount of intracellular cAMP was monitored by using the emission value originating from firefly luciferase gene (fluc2P-CRE-hygro) as an indicator. Furthermore, a gene product obtained by fusing renilla luciferase gene in the downstream of CMV promoter (hRluc-CMV) was simultaneously introduced, and this was used as an internal standard for correcting an error in the transgenesis efficiency or the number of cells. The medium was removed from the culture prepared in the above-described section 3) by using a Pipetman, and 75 μl of a solution containing an odor substance (1 mM hexanoic acid or 300 μM nonanoic acid) prepared in CD293 medium (Invitrogen) was added thereto. The cells were cultured for 4 hours in a CO2 incubator, and the luciferase gene was sufficiently expressed in the cells. For the measurement of luciferase activity, the measurement was carried out by using a Dual-Glo™ luciferase assay system (Promega) according to the operation manual of the product. A value calculated by dividing the emission value, derived from a firefly luciferase induced by the stimulation with an odor substance, by the emission value in cells that were not-stimulated with an odor substance, was designated as a fold increase, and used as an index of response intensity.
(§4) OR2W1, OR10A6, OR51E1, OR51I2, and OR51L1 were respectively expressed in HEK293 cells by the same method as that used in Example 1, and a luciferase assay was carried out. In the luciferase assay, hexanoic acid was used as the odorous substance, and test substances were added together with hexanoic acid. The response of the olfactory receptors to hexanoic acid was measured, and a decrease in the receptor response to the addition of test substances was evaluated.
(§5) The inhibition ratios of the receptor response to test substances were calculated as follows. The emission value (Y) obtained from the cells in which the same receptors were introduced but no odor stimulation was conducted, was subtracted from the emission value derived from firefly luciferase (X) induced by odor stimulation with hexanoic acid alone. Similarly, the emission value (Y) obtained from the cells in which no odor stimulation was conducted, was subtracted from the emission value (Z) caused by stimulation with a mixture of hexanoic acid and a test substance. By the following calculation formula, the inhibitory activity of the test substance to receptor response was calculated based on the increment of the emission value (X−Y) caused by stimulation of hexanoic acid alone. Multiple independent experiments were performed in duplicate, and the average of each experiment was obtained. Inhibition ratio (%)={1−(Z−Y)/(X−Y)}×100 […]
Background: Reporter assays use an easily measured gene product as a stand-in for the process of interest.

Another assay concerns the target T2, OR51E1 (Homo sapiens, UniProt Q8TCB6).
T2 construct: expressed in transfected cells; host or cells: HEK293
T2 sequence (Q8TCB6 1-318): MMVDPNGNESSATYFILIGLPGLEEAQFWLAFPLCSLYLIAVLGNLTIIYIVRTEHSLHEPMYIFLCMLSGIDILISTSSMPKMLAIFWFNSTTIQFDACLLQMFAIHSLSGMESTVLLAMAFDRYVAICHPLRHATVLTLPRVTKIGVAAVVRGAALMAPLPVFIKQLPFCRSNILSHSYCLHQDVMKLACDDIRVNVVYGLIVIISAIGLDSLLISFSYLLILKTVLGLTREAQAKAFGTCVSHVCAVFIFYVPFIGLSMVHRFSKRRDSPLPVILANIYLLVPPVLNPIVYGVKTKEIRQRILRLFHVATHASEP
Kind of assay: Luciferase reporter gene assay, OR51E1 expressed in HEK293 cells. To be noted: for Inhibition of OR51E1 response to hexanoic acid (in words): 1 mM hexanoic acid, test substance 3, 10, 30, 100, 300 μM (FIG. 4). The assay is classed as cell-based. The protocol: as §1, §2, §3, §4, §5

The target of another assay is T3, OR51L1 (Homo sapiens, UniProt Q8NGJ5).
T3 construct: expressed in transfected cells; host or cells: HEK293
T3 sequence (Q8NGJ5 1-315): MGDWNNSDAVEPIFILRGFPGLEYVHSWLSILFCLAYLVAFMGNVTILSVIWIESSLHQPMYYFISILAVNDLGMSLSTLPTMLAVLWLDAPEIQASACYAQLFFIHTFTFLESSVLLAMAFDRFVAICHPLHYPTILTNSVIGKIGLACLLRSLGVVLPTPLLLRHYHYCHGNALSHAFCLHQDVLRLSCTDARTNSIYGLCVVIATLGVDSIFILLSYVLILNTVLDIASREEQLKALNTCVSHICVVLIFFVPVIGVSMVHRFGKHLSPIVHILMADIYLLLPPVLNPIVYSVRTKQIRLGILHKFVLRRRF
Description: Luciferase reporter gene assay, OR51L1 expressed in HEK293 cells. The class given is cell-based. To be noted: for Inhibition of OR51L1 response to hexanoic acid (in words): 1 mM hexanoic acid, test substance 3, 10, 30, 100, 300 μM (FIG. 4). The protocol:
as §1, §2, §3, §4, §5

In the next assay the target is T4, OR51I2 (Homo sapiens, UniProt Q9H344).
T4 construct: expressed in transfected cells; host or cells: HEK293
T4 sequence (Q9H344 1-312): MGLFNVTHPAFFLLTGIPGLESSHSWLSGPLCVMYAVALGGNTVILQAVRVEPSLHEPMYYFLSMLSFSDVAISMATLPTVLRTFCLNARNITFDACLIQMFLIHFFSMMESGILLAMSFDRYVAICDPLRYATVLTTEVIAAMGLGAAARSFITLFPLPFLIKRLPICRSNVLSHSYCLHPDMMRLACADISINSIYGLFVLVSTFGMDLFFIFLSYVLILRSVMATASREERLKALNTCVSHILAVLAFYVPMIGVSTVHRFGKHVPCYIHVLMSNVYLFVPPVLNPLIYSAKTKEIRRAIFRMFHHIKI
Description: Luciferase reporter gene assay, OR51I2 expressed in HEK293 cells. The class given is cell-based. The conditions noted are these: for Inhibition of OR51I2 response to hexanoic acid (in words): 1 mM hexanoic acid, test substance 3, 10, 30, 100, 300 μM (FIG. 4). The protocol:
as §1, §2, §3, §4, §5

For another assay, the target named is T5, OR10A6 (Homo sapiens, UniProt Q8NH74).
T5 construct: expressed in transfected cells; host or cells: HEK293
T5 sequence (Q8NH74 1-314): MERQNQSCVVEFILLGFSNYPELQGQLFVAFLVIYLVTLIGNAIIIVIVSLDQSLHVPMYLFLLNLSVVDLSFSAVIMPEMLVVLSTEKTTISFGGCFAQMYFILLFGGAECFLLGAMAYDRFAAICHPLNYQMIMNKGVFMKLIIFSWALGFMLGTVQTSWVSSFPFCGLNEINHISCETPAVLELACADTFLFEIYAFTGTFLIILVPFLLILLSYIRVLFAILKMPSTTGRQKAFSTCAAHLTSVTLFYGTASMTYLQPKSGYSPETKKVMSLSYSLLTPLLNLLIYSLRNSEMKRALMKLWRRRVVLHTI
Kind of assay: Luciferase reporter gene assay, OR10A6 expressed in HEK293 cells. The class given is cell-based. The protocol:
as §1, §2, §3, §4
The inhibition ratios of the receptor response to test substances were calculated as follows. The emission value (Y) obtained from the cells in which the same receptors were introduced but no odor stimulation was conducted, was subtracted from the emission value derived from firefly luciferase (X) induced by odor stimulation with hexanoic acid alone. Similarly, the emission value (Y) obtained from the cells in which no odor stimulation was conducted, was subtracted from the emission value (Z) caused by stimulation with a mixture of hexanoic acid and a test substance. By the following calculation formula, the inhibitory activity of the test substance to receptor response was calculated based on the increment of the emission value (X−Y) caused by stimulation of hexanoic acid alone. Multiple independent experiments were performed in duplicate, and the average of each experiment was obtained. Inhibition ratio (%)={1−(Z−Y)/(X−Y)}×100

A short description of assay [1]: Sensory evaluation test of hexanoic acid odor inhibition. The class given is in vivo. The protocol: Cotton balls were introduced into a glass bottle (Hakuyo Glass Co., Ltd. No. 11, capacity 110 ml), and hexanoic acid diluted 100 times with propylene glycol, nonanoic acid diluted 10 times with propylene glycol, or isovaleric acid diluted 1000 times with propylene glycol, as a malodor, and a test substance were added dropwise in an amount of […] to the cotton balls. The glass bottle was left to stand overnight at room temperature, and the odor molecules were sufficiently volatilized in the glass bottle. A sensory evaluation test was carried out by a panel of three panelists (5 panelists for isovaleric acid), and while the intensity of odor in the case of adding dropwise the malodor alone was rated as 5, the intensity of the malodor in the case of incorporating a test substance was evaluated on the basis of a system of 20 grades from 0 point to 10 points (0.5 points per grade).
Regarding the test substance, florhydral (Givaudan SA), bourgeonal (Givaudan SA), hydroxycitronellal (Givaudan SA, International Flavors & Fragrances, Inc., and the like), 4-isopropylcyclohexanecarbaldehyde (synthesized according to a method described in JP-A-2-188549), 4-(2-methoxyphenyl)-2-methyl-2-butanol (JP-A-9-111281), florosa (Givaudan SA), isocyclocitral (Givaudan SA, International Flavors & Fragrances, Inc., and the like), tripral (International Flavors & Fragrances, Inc.), and Pollenal II (Kao Corp.), which had been diluted 100 times with propylene glycol, were used for hexanoic acid; florhydral that had been diluted 10 times with propylene glycol was used for nonanoic acid; and florhydral that had been diluted 1000 times with propylene glycol was used for isovaleric acid.

Setting [2] is: response to hexanoic acid, test substance added together with hexanoic acid, HEK293.

Consider `CC1=CC(C)C(CO)CC1` (stereo not shown) [floralol, reference compound], for which, on OR2W1, the “Inhibition of OR2W1 response to hexanoic acid (in words)” value is “no response inhibiting effect”. Moreover, on OR51E1, the “Inhibition of OR51E1 response to hexanoic acid (in words)” value is given as “no response inhibiting effect”. Also, the “Inhibition of OR51L1 response to hexanoic acid (in words)” value at OR51L1 is recorded as “no response inhibiting effect”. For the same molecule, on OR51I2, the “Inhibition of OR51I2 response to hexanoic acid (in words)” value was “no response inhibiting effect”. For the same molecule, at OR10A6, the “Inhibition of OR10A6 response (in words)” value was “no response inhibiting effect”.
Take `CC(C)C1CCC(C)(C=O)CC1` (stereo not shown) [4-isopropyl-1-methylcyclohexanecarbaldehyde]: on OR10A6 (setting [2]), the “Inhibition ratio of OR10A6 response” value was 1 (Inhibition ratio: 50% or higher).
Take `CC(C)(C)c1ccc(CCC=O)cc1` [Bourgeonal, 3-(4-tert-butylphenyl)propanal]: the “Inhibition of OR2W1 response to hexanoic acid (in words)” value on OR2W1 is given as “in a concentration-dependent manner”. Further, the “Inhibition ratio of OR2W1 response” value on OR2W1 (setting [2]) is reported as 1 (Inhibition ratio: 50% or higher). Also, the “Inhibition of OR51E1 response to hexanoic acid (in words)” value on OR51E1 is reported as “in a concentration-dependent manner”. The “Inhibition ratio of OR51E1 response” value at OR51E1 (setting [2]) is 1 (Inhibition ratio: 50% or higher). The “Inhibition of OR51L1 response to hexanoic acid (in words)” value at OR51L1 is “in a concentration-dependent manner”. Also, on OR51L1 (setting [2]), the “Inhibition ratio of OR51L1 response” value is on record as 1 (Inhibition ratio: 50% or higher). Further, the “Inhibition of OR51I2 response to hexanoic acid (in words)” value at OR51I2 is “in a concentration-dependent manner”. In addition, the “Inhibition ratio of OR51I2 response” value at OR51I2 (setting [2]) is on record as 1 (Inhibition ratio: 50% or higher). In assay [1] (hexanoic acid odor, malodor alone rated as 5, 0 to 10 points, test substance diluted 100 times with propylene glycol, three panelists), this molecule yielded an Intensity of odor of 3.13. The “Inhibition of hexanoic acid odor (in words)” value in assay [1] (sensory test, test substance diluted 100 times with propylene glycol (FIG. 5, Table 4)) was “markedly inhibited”.
